56 compounds from patent publication US8501781B2 (priority 2009, dated 2013) can be followed below.

Marks after values point to notes of the source that are not given here.

The data set in a line: logP by HPLC (EEC Directive 79/831 Annex V.A8). In kind it is physicochemical. To be noted: for chromatographic logP: pH 2.7, given in the preparation examples, read-out: log P (pH 2.7).
[1] abbreviates: [b] LC-MS, acidic range, pH 2.7, 0.1% aqueous formic acid and acetonitrile.
Setting [2] is: [c] LC-MS, neutral range, pH 7.8, 0.001 molar aqueous ammonium bicarbonate and acetonitrile.

For the compound `Cc1noc(C)c1NC(=S)N1CCC(c2nc(C(=O)OCc3ccccc3Br)cs2)CC1` [Example 119], the logP – broadly, the decadic logarithm of the partition coefficient of the neutral form, usually between octanol and water – under setting [1] came out at 3.2; the logP under setting [2] is 3.21.
For the compound `Cc1ccc(C)c(NC(=O)N2CCC(c3nc(C(=O)OCc4c(F)cccc4Cl)cs3)CC2)c1` [Example 120], under setting [1], the logP was 3.66^[b].
For the compound `Cc1ccc(C)c(NC(=O)N2CCC(c3nc(C(=O)OCc4c(F)cccc4F)cs3)CC2)c1` [Example 121], the logP under setting [1] was 3.38^[b].
Consider `Cc1ccc(C)c(NC(=O)N2CCC(c3nc(C(=O)O[C@@H]4CCCC[C@H]4c4ccccc4)cs3)CC2)c1` [Example 122], for which the logP under setting [1] was 4.43^[b].
`Cc1ccc(C)c(NC(=O)N2CCC(c3nc(C(=O)O[C@H]4CCCC[C@@H]4c4ccccc4)cs3)CC2)c1` [Example 123]: the logP under setting [1] is 4.42^[b].
With `O=C(OC1CCCc2ccccc21)c1csc(C2CCN(C(=S)Nc3cc(F)ccc3F)CC2)n1` (centres unmarked) [Example 124], the logP under setting [1] came out at 4.06 and the logP under setting [2] was found to be 3.94.
For the compound `Cc1ccc(Cl)cc1NC(=O)N1CCC(c2nc(C(=O)OC3CCCc4ccccc43)cs2)CC1` (centres unmarked) [Example 125], the log partition coefficient (logP) runs as follows: under setting [1], 4.27; under setting [2], 4.14.
On to `Cc1ccc(C)c(NC(=O)N2CCC(F)(c3nc(C(=O)O[C@@H]4CCCc5ccccc54)cs3)CC2)c1` [Example 126], for which the log partition coefficient (logP) under setting [1] was 4.30^[b].
Regarding `Cc1cc(C(F)(F)F)nn1CC(=O)N1CCC(F)(c2nc(C(=O)O[C@@H]3CCCc4ccccc43)cs2)CC1` [Example 127], the logP under setting [1] is 4.25^[b].
In the case of `Cc1ccc(C)c(NC(=O)N2CCC(c3nc(C(=O)OCc4ccccc4Cl)cs3)CC2)c1` [Example 135], the logP under setting [1] is 3.73^[b].
`Cc1ccc(C)c(NC(=O)N2CCC(c3nc(C(=O)OCc4ccccc4I)cs3)CC2)c1` [Example 136]: under setting [1], the logP was 3.96^[b].
Turning to `Cc1ccc(C)c(NC(=O)N2CCC(c3nc(C(=O)OCc4c(Cl)cccc4Cl)cs3)CC2)c1` [Example 137], the logP under setting [1] was 3.97^[b].
`COc1cccc(F)c1C(C)OC(=O)c1csc(C2CCN(C(=O)Nc3cc(C)ccc3C)CC2)n1` (centres unmarked) [Example 138]: under setting [1], the logP is 3.79^[b].
For `Cc1ccc(C)c(NC(=O)N2CCC(c3nc(C(=O)OCc4ccncc4Cl)cs3)CC2)c1` [Example 139], under setting [1], the log partition coefficient (logP) was 2.77^[b].
On to `Cc1ccc(C)c(NC(=O)N2CCC(c3nc(C(=O)OCc4ccccc4F)cs3)CC2)c1` [Example 140], for which the logP under setting [1] was 3.39^[b].
With `Cc1ccc(C)c(NC(=O)N2CCC(c3nc(C(=O)Oc4c(C)cccc4Br)cs3)CC2)c1` [Example 141], under setting [1], the lipophilicity (logP) is 3.82^[b].
Regarding `COc1cccc(Br)c1OC(=O)c1csc(C2CCN(C(=O)Nc3cc(C)ccc3C)CC2)n1` [Example 142], the logP under setting [1] was 3.56^[b].
For the compound `Cc1ccc(C)c(NC(=O)N2CCC(c3nc(C(=O)Oc4c(C)cccc4Cl)cs3)CC2)c1` [Example 143], the logP under setting [1] is 3.76^[b].
As to `Cc1ccc(C)c(NC(=O)N2CCC(c3nc(C(=O)Oc4c(Br)cccc4Br)cs3)CC2)c1` [Example 144], under setting [1], the logP was 3.93^[b].
For the compound `COc1cccc(F)c1OC(=O)c1csc(C2CCN(C(=O)Nc3cc(C)ccc3C)CC2)n1` [Example 145], the logP under setting [1] was 3.28^[b].
Regarding `Cc1ccc(C)c(NC(=O)N2CCC(c3nc(C(=O)Oc4ccccc4Br)cs3)CC2)c1` [Example 146], the log partition coefficient (logP) under setting [1] is 3.58^[b].
Turning to `Cc1ccc(C)c(NC(=O)N2CCC(c3nc(C(=O)Oc4ccccc4F)cs3)CC2)c1` [Example 147], under setting [1], the logP was 3.27^[b].
As for `Cc1ccc(C)c(NC(=O)N2CCC(c3nc(C(=O)Oc4ccccc4Cl)cs3)CC2)c1` [Example 148], the logP under setting [1] is 3.51^[b].
For the compound `Cc1ccc(C)c(NC(=O)N2CCC(c3nc(C(=O)Oc4c(F)cccc4Cl)cs3)CC2)c1` [Example 149], the logP under setting [1] is 3.62^[b].
For `Cc1ccc(C)c(NC(=O)N2CCC(c3nc(C(=O)Oc4c(F)cccc4F)cs3)CC2)c1` [Example 150], under setting [1], the logP is 3.39^[b].
Still for that read-out and setting: as for `Cc1ccc(C)c(NC(=O)N2CCC(c3nc(C(=O)Oc4c(Cl)cccc4Cl)cs3)CC2)c1` [Example 151], the figure is 3.82^[b].
As for `Cc1ccc(C)c(NC(=O)N2CCC(c3nc(C(=O)Oc4c(F)cccc4Br)cs3)CC2)c1` [Example 152], under setting [1], the logP was 3.86^[b].
With `Cc1ccc(C)c(NC(=O)N2CCC(c3nc(C(=O)OC(C)c4ccccc4F)cs3)CC2)c1` (centres unmarked) [Example 153], under setting [1], the logP was 3.71^[b].
With `Cc1ccc(C)c(NC(=O)N2CCC(c3nc(C(=O)Oc4ccccc4I)cs3)CC2)c1` [Example 154], the logP under setting [1] is 3.69^[b].
Consider `Cc1ccc(C)c(NC(=O)N2CCC(c3nc(C(=O)OCc4c(F)cccc4Br)cs3)CC2)c1` [Example 155], for which the logP under setting [1] was 3.79^[b].
`Cc1ccc(C)c(NC(=O)N2CCC(c3nc(C(=O)OC(C)c4c(Cl)cccc4Cl)cs3)CC2)c1` (centres unmarked) [Example 156]: under setting [1], the logP is 4.35^[b].
`Cc1ccc(C)c(NC(=O)N2CCC(c3nc(C(=O)OCCc4c(Cl)cccc4Cl)cs3)CC2)c1` [Example 157]: the logP under setting [1] is 4.29^[b].
For the compound `Cc1ccc(C)c(NC(=S)N2CCC(c3nc(C(=O)OC4CCCCC4c4ccccc4)cs3)CC2)c1` (centres unmarked) [Example 158], the log partition coefficient (logP) under setting [1] is 4.73^[b].
In the case of `Cc1ccc(Cl)cc1NC(=S)N1CCC(c2nc(C(=O)OC3CCCCC3c3ccccc3)cs2)CC1` (centres unmarked) [Example 159], under setting [1], the log partition coefficient (logP) is 4.83^[b].
Regarding `Cc1ccc(C)c(NC(=O)N2CCC(c3nc(C(=O)OC4CCCCC4c4ccc(F)c(F)c4)cs3)CC2)c1` (centres unmarked) [Example 160], under setting [1], the logP was 4.52^[b].
Same read-out and setting: next, `Cc1ccc(Cl)cc1NC(=O)N1CCC(c2nc(C(=O)OCc3c(F)cccc3Cl)cs2)CC1` [Example 161]: 3.89^[b]; `COc1ccc(C)cc1NC(=O)N1CCC(c2nc(C(=O)OCc3c(F)cccc3Cl)cs2)CC1` [Example 162]: 3.92^[b].
Still for that read-out and setting: as for `Cc1ccc(Cl)cc1NC(=O)N1CCC(c2nc(C(=O)OCc3c(F)cccc3F)cs2)CC1` [Example 163], the figure is 3.62^[b]; as for `COc1ccc(C)cc1NC(=O)N1CCC(c2nc(C(=O)OCc3c(F)cccc3F)cs2)CC1` [Example 164], 3.66^[b].
For `Cc1cc(C(F)(F)F)nn1CC(=O)N1CCC(F)(c2nc(C(=O)OCc3c(F)cccc3F)cs2)CC1` [Example 165], the logP runs as follows: under setting [1], 3.65; under setting [2], 3.67.
As for `Cc1ccc(Cl)cc1NC(=O)N1CCC(F)(c2nc(C(=O)OCc3c(F)cccc3F)cs2)CC1` [Example 166], the logP is 3.87 under setting [1] and 3.86 under setting [2].
`Cc1ccc(Cl)cc1NC(=O)N1CCC(F)(c2nc(C(=O)OC3CCCCC3)cs2)CC1` [Example 167]: the log partition coefficient (logP) is given as 4.33 under setting [1] and 4.32 under setting [2].
Regarding `O=C(OCc1c(F)cccc1F)c1csc(C2(F)CCN(C(=O)Cn3nc(C(F)F)cc3C(F)F)CC2)n1` [Example 168], the logP was 3.53 under setting [1] and 3.56 under setting [2].
`COc1ccc(C)cc1NC(=O)N1CCC(F)(c2nc(C(=O)OC3CCCCC3)cs2)CC1` [Example 169]: the logP is, setting by setting: under setting [1], 4.4; under setting [2], 4.42.
Take `Cc1cc(C(F)(F)F)nn1CC(=O)N1CCC(F)(c2nc(C(=O)OC3CCCCC3)cs2)CC1` [Example 170]: the logP came out at 4.07 under setting [1] and 4.09 under setting [2].
As to `Cc1ccc(C)c(NC(=O)N2CCC(F)(c3nc(C(=O)OCc4c(F)cccc4F)cs3)CC2)c1` [Example 171], the logP is, setting by setting: under setting [1], 3.69; under setting [2], 3.71.
As to `Cc1ccc(C)c(NC(=O)N2CCC(F)(c3nc(C(=O)OC4CCCCC4)cs3)CC2)c1` [Example 172], the log partition coefficient (logP) under setting [1] was 4.15^[c]; 4.15^[b] and the log partition coefficient (logP) under setting [2] was 4.15^[c]; 4.15^[b].
With `COc1ccc(C)cc1NC(=O)N1CCC(F)(c2nc(C(=O)OCc3c(F)cccc3F)cs2)CC1` [Example 173], the log partition coefficient (logP) stood at 3.80 under setting [1] and 3.92 under setting [2].
In the case of `COCCOCC(=O)N1CCC(c2nc(C(=O)OC3CCCCC3)cs2)CC1` [Example 174], the logP ([a] acidic range, pH 2.3, 0.1% aqueous phosphoric acid and acetonitrile) was 2.37^[a].
On to `O=C(OCc1c(F)cccc1F)c1cnc(C2CCN(C(=O)Cn3nc(C(F)F)cc3C(F)F)CC2)s1` [Example 175], for which, under setting [1], the logP was 3.45^[b].
Consider `O=C(Oc1c(F)cccc1Cl)c1cnc(C2CCN(C(=O)Cn3nc(C(F)F)cc3C(F)F)CC2)s1` [Example 176], for which, under setting [1], the logP is 3.67^[b].
Regarding `Cc1cccc(COC(=O)c2cnc(C3CCN(C(=O)Cn4nc(C(F)F)cc4C(F)F)CC3)s2)c1C` [Example 177], under setting [1], the logP was 4.00^[b].
Turning to `O=C(OC1CCCCC1)c1cnc(C2CCN(C(=O)Cn3nc(C(F)F)cc3C(F)F)CC2)s1` [Example 178], under setting [1], the logP is 3.97^[b].
For the compound `O=C(OC1CCCCC1)c1csc(C2CCNCC2)n1` [VII-1, 4-{4-[(Cyclohexyloxy)carbonyl]-1,3-thiazol-2-yl}piperidinium chloride], the chromatographic logP is 1.25.
For `CC(C)(C)OC(=O)N1CCC(c2nc(C(=O)O)cs2)CC1` [XXXI-1, 2-[1-(tert-Butoxycarbonyl)piperidin-4-yl]-1,3-thiazole-4-carboxylic acid], the chromatographic logP came to 2.04.
The same measure, in the same setting: as for `CC(C)(C)OC(=O)N1CCC(c2nc(C(=O)OC3CCCCC3)cs2)CC1` [XXXIII-1, tert-Butyl 4-{4-[(cyclohexyloxy)carbonyl]-1,3-thiazol-2-yl}piperidine-1-carboxylate], the figure is 4.62.
